# The source made the active and inactive calls. The calls are words filed in the database; no cut-off is given here.
# Assays:
# [1] = Efflux ratio of permeability across basolateral to apical side over apical to basolateral side in human Caco-2 cells by LC-MS/MS analysis; type: ADME, cell-based
# [2] = Protein binding in human plasma by LC-MS/MS based equilibrium dialysis method; type: ADME, cell-free; settings: read-out: PPB (converted)
# [3] = Protein binding in rat plasma by LC-MS/MS based equilibrium dialysis method; type: ADME, cell-free; settings: read-out: PPB (converted)
# [4] = Metabolic stability in rat liver microsomes assessed as half life by LC-MS/MS analysis; type: ADME, Microsome
# [5] = Metabolic stability in rat liver microsomes assessed as intrinsic clearance by LC-MS/MS analysis; type: ADME, Microsome; settings: read-out: CLH
# [6] = Tmax in Sprague-Dawley rat at 10 mg/kg, po measured upto 24 hrs by LC-MS/MS analysis; type: ADME, organism-based; settings: in vivo
# [7] = AUC (0 to 24 hrs) in Sprague-Dawley rat at 10 mg/kg, po measured upto 24 hrs by LC-MS/MS analysis; type: ADME, organism-based; parameters: route oral, dose 10 mg/kg, time <=24; settings: in vivo
# [8] = Clearance in Sprague-Dawley rat at 2 mg/kg, iv measured upto 24 hrs by LC-MS/MS analysis; type: ADME, organism-based; settings: in vivo
# [9] = Volume of distribution at steady state in Sprague-Dawley rat at 2 mg/kg, iv measured upto 24 hrs by LC-MS/MS analysis; type: ADME, organism-based; settings: in vivo, read-out: Vdss
# [10] = biological target: Receptor-interacting serine/threonine-protein kinase 3 (Homo sapiens) (UniProt Q9Y572); assay: Binding affinity to wild-type human partial length RIPK3 (M1 to Q307 residues) expressed in bacterial expression system at 10000 nM measured after 1 hr by Kinomescan method
# Mus musculus = assay: Anti-necroptosis activity against TNFalpha-induced C57BL/6J mouse systemic inflammatory response syndrome model assessed as reduction in lethal shock at 3 mg/kg, ip pretreated for 15 mins and measured upto 72 hrs after TNFalpha stimulation; type: functional, organism-based
# [11] = Toxicity in C57BL/6J mouse assessed as effect on body weight at 5 to 25 mg/kg, po administered daily for 7 days; type: organism-based; settings: in vivo, 168 h, dose 5-25 mg/kg, time 7 day
# [12] = Toxicity in C57BL/6J mouse assessed as effect on liver morphological changes at 5 to 25 mg/kg, po administered daily for 7 days by H and E staining method; type: organism-based; settings: in vivo, 168 h, dose 5-25 mg/kg, time 7 day
# [13] = Toxicity in C57BL/6J mouse assessed as effect on kidney morphological changes at 5 to 25 mg/kg, po administered daily for 7 days by H and E staining method; type: organism-based; settings: in vivo, 168 h, dose 5-25 mg/kg, time 7 day
# [14] = Toxicity in C57BL/6J mouse assessed as effect on lung morphological changes at 5 to 25 mg/kg, po administered daily for 7 days by H and E staining method; type: organism-based; settings: in vivo, 168 h, dose 5-25 mg/kg, time 7 day
# [15] = Cmax in Sprague-Dawley rat at 10 mg/kg, po measured upto 24 hrs by LC-MS/MS analysis; type: ADME, organism-based; parameters: route oral, dose 10 mg/kg, time <=24; settings: in vivo
# [16] = AUC (0 to 24 hrs) in Sprague-Dawley rat at 2 mg/kg, iv measured upto 24 hrs by LC-MS/MS analysis; type: ADME, organism-based; parameters: route intravenous, dose 2 mg/kg, time <=24; settings: in vivo
# [17] = Toxicity in C57BL/6J mouse assessed as effect on behavioral change at 5 to 25 mg/kg, po administered daily for 7 days; type: organism-based; settings: in vivo, 168 h, dose 5-25 mg/kg, time 7 day
# [18] = Toxicity in C57BL/6J mouse assessed as effect on food intake at 5 to 25 mg/kg, po administered daily for 7 days; type: organism-based; settings: in vivo, 168 h, dose 5-25 mg/kg, time 7 day
# [19] = Protein binding in rat plasma assessed as unbound fraction by LC-MS/MS based equilibrium dialysis method; type: ADME, cell-free
# Receptor-interacting serine/threonine-protein kinase 3 (Homo sapiens), sequence (Q9Y572 whole entry, looked up, the tested form may be a part): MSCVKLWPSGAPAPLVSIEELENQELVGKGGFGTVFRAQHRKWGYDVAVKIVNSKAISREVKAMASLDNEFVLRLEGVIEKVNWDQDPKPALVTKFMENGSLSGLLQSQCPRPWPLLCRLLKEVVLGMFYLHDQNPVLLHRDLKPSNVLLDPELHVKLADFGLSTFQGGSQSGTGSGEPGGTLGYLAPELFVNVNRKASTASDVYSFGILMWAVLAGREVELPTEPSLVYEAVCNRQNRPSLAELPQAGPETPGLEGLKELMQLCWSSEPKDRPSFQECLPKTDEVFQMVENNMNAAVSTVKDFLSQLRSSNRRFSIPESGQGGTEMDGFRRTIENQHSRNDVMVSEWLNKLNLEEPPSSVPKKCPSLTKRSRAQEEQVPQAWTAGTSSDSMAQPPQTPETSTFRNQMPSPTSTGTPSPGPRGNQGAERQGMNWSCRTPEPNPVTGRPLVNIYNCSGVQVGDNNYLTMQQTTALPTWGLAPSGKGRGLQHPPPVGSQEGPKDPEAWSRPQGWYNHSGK
smiles,measurement,setting,value
Cc1ncc(-c2ccc3nc(NC(=O)C4CC4)sc3c2)cc1NC(=O)OC1CCOCC1,efflux ratio,[1],1.1
same,fraction unbound,[2],0.016
same,fraction unbound,[3],0.018
same,half-life,[4],39 min
same,CLint scaled,[5],159 mL/min/kg
same,Tmax,[6],72 min
same,AUC,[7],1208 ng·h/mL
same,clearance,[8],33 mL/min/kg
same,Vd,[9],2.4 L/kg
same,Activity,[10],inactive
same,Activity,Mus musculus,Active
same,Activity,[11],Non-Toxic
same,Activity,[12],Non-Toxic
same,Activity,[13],Non-Toxic
same,Activity,[14],Non-Toxic
same,Cmax,[15],1240 ng/mL
same,AUC,[16],1208 ng·h/mL
same,Activity,[17],Non-Toxic
same,Activity,[18],Non-Toxic
same,fraction unbound,[19],0.018
